Data from ChEMBL document CHEMBL1142442, “Synthesis of chimeric tetrapeptide-linked cholic acid derivatives: impending synergistic agents” (Bioorg Med Chem Lett, 2008).
Values after ≈ are worked out from the molar mass of the structure shown. Where a SMILES comes first, the peptide text is derived from it. The star is where a group is joined. Boc = CC(C)(C)OC(=O)*; OBn = c1ccc(CO*)cc1

Key:
Candida albicans [1] = assay: Antifungal activity at Candida albicans; format: functional
MCF7 [2] = assay: Antiproliferative activity against human MCF7 cells by MTT assay; format: functional, cell-based
HEK293 [3] = assay: Antiproliferative activity against HEK293 cells at upto 80 uM by MTT assay; format: cell-based; conditions: human
MCF7 [4] = assay: Antiproliferative activity against human MCF7 cells at upto 80 uM by MTT assay; format: functional, cell-based
Yarrowia lipolytica = assay: Antifungal activity at Yarrowia lipolytica; format: functional
Cryptococcus neoformans = assay: Antifungal activity at Cryptococcus neoformans; format: functional
Staphylococcus aureus = assay: Antibacterial activity at Staphylococcus aureus; format: functional
Escherichia coli [5] = assay: Antibacterial activity at Escherichia coli; format: functional
HEK293 [6] = assay: Antiproliferative activity against HEK293 cells by MTT assay; format: cell-based; conditions: Homo sapiens
Fusarium oxysporum = assay: Antifungal activity at Fusarium oxysporum; format: functional
Candida albicans [7] = assay: Antifungal activity at Candida albicans assessed as concentration required to lower the MIC of fluconazole from 32 to 1 ug/mL after 48 hrs; format: functional
Escherichia coli [8] = assay: Antibacterial activity at Escherichia coli assessed as concentration required to lower the MIC of erythromycin from 64 to 1 ug/mL after 24 hrs; format: functional
Benjaminiella poitrasii = assay: Antifungal activity at Benjaminiella poitrasii; format: functional

Structure (SMILES)	MIC (Candida albicans [1]) [µg/mL]	IC50 (MCF7 [2]) [µM]	Activity (HEK293 [3])	Activity (MCF7 [4])	MIC (Yarrowia lipolytica) [µg/mL]	MIC (Cryptococcus neoformans) [µg/mL]	MIC (Staphylococcus aureus) [µg/mL]	MIC (Escherichia coli [5]) [µg/mL]	IC50 (HEK293 [6]) [µM]	MIC (Fusarium oxysporum) [µg/mL]	MIC (Candida albicans [7]) [µg/mL]	MIC (Escherichia coli [8]) [µg/mL]	MIC (Benjaminiella poitrasii) [µg/mL]
C[C@H](CCCO)[C@H]1CC[C@H]2[C@@H]3[C@H](O)C[C@@H]4C[C@@H](NC(=O)CCNC(=O)CCNC(=O)CCNC(=O)CCNC(=O)OC(C)(C)C)CC[C@]4(C)[C@H]3C[C@H](O)[C@]12C	128 (≈ 165 µM)	> 1000	Non-toxic	Non-toxic	> 128	> 128	> 128	> 128	800	64 (≈ 82.3 µM)	12	20	> 128
CC(C)(C)OC(=O)NCC(=O)NCC(=O)NCC(=O)NCC(=O)OCc1ccccc1 (Boc-GGGG-OBn)	> 128	–	–	–	–	–	–	128 (≈ 293 µM)	–	–	128	128	–
OC(Cn1cncn1)(Cn1cncn1)c1ccc(F)cc1F [FLUCONAZOLE]	32 (≈ 104 µM)	–	–	–	64 (≈ 209 µM)	32 (≈ 104 µM)	–	–	–	8 (≈ 26.1 µM)	–	–	32 (≈ 104 µM)
C[C@H](CCCO)[C@H]1CC[C@H]2[C@@H]3[C@H](O)C[C@@H]4C[C@@H](NC(=O)CCNC(=O)CCNC(=O)CCNC(=O)CCN)CC[C@]4(C)[C@H]3C[C@H](O)[C@]12C	64 (≈ 94.4 µM)	> 1000	Non-toxic	Non-toxic	> 128	> 128	> 128	32 (≈ 47.2 µM)	800	> 128	6	8	64 (≈ 94.4 µM)
COC(=O)CC[C@@H](C)[C@H]1CC[C@H]2[C@@H]3[C@H](O)C[C@@H]4C[C@@H](NC(=O)CNC(=O)CNC(=O)CNC(=O)CNC(=O)OC(C)(C)C)CC[C@]4(C)[C@H]3C[C@H](O)[C@]12C	16 (≈ 21.3 µM)	300	Non-toxic	Non-toxic	> 128	> 128	32 (≈ 42.7 µM)	96 (≈ 128 µM)	600	64 (≈ 85.3 µM)	8	24	64 (≈ 85.3 µM)
NCC(=O)NCC(=O)NCC(=O)NCC(=O)O (H-GGGG-OH)	128 (≈ 520 µM)	–	–	–	–	–	–	> 128	–	–	> 128	64	–
CC(C)(C)OC(=O)NCC(=O)NCC(=O)NCC(=O)NCC(=O)O (Boc-GGGG-OH)	> 128	–	–	–	–	–	–	64 (≈ 185 µM)	–	–	64	128	–
CC(=O)OCCC[C@@H](C)[C@H]1CC[C@H]2[C@@H]3[C@H](OC(C)=O)C[C@@H]4C[C@@H](NC(=O)CCNC(=O)CCNC(=O)CCNC(=O)CCNC(=O)OC(C)(C)C)CC[C@]4(C)[C@H]3C[C@H](O)[C@]12C	32 (≈ 37.1 µM)	150	Non-toxic	Non-toxic	96 (≈ 111 µM)	> 128	32 (≈ 37.1 µM)	> 128	80	> 128	8	10	64 (≈ 74.2 µM)
CC(C)(C)OC(=O)NCCC(=O)NCCC(=O)NCCC(=O)NCCC(=O)OCc1ccccc1	> 128	–	–	–	–	–	–	128 (≈ 260 µM)	–	–	128	64	–
CC(=O)OCCC[C@@H](C)[C@H]1CC[C@H]2[C@@H]3[C@H](OC(C)=O)C[C@@H]4C[C@@H](NC(=O)CNC(=O)CNC(=O)CNC(=O)CNC(=O)OC(C)(C)C)CC[C@]4(C)[C@H]3C[C@H](O)[C@]12C	64 (≈ 79.4 µM)	500	Non-toxic	Non-toxic	> 128	> 128	> 128	64 (≈ 79.4 µM)	200	64 (≈ 79.4 µM)	12	24	32 (≈ 39.7 µM)
CC(=O)OCCC[C@@H](C)[C@H]1CC[C@H]2[C@@H]3[C@H](OC(C)=O)C[C@@H]4C[C@@H](NC(=O)CNC(=O)CNC(=O)CNC(=O)CN)CC[C@]4(C)[C@H]3C[C@H](O)[C@]12C	64 (≈ 90.7 µM)	150	Non-toxic	Non-toxic	> 128	> 128	64 (≈ 90.7 µM)	> 128	800	32 (≈ 45.3 µM)	6	8	16 (≈ 22.7 µM)
